Measurements reported in patent US12128028B2, “Heterocyclic sulfonamide derivatives and pharmaceutical uses thereof” (METRION BIOSCIENCES LIMITED, priority 2018, dated 2024).

What follows are compounds tested against human Kv1.3 (Homo sapiens (Human), UniProt P22001) (assay: Kv1.3 potency evaluation, automated patch clamp electrophysiology (QPatch HT) in CHO-Kv1.3 cells). Conditions: whole-cell QPatch HT, % inhibition of charge, step to +30 mV, four concentrations, N≥3 cells, read-out: hKv1.3 IC50.
Sequence of human Kv1.3 (P22001 whole entry): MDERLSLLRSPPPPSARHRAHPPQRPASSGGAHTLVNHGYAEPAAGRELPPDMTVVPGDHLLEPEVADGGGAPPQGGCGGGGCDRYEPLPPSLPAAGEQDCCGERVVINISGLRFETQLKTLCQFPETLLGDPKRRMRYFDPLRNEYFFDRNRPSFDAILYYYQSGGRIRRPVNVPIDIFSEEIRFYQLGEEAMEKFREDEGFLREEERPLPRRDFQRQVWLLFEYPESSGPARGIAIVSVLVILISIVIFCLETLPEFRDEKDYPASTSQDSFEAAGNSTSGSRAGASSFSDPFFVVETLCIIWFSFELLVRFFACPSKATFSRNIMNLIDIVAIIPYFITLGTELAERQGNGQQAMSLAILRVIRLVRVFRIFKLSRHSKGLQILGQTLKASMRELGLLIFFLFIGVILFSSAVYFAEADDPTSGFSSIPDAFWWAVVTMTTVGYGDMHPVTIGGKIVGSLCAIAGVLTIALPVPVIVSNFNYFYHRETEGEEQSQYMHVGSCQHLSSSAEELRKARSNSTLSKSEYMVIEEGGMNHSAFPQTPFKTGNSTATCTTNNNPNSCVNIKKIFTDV
Assay type: cell-based
Summary of the method: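 Automated whole-cell patch clamp in CHO cells stably expressing human Kv1.3; steps from −80 to +30 mV (500 ms) at 0.067 Hz. Four cumulative concentrations after vehicle (0.1-0.3% DMSO); charge inhibition vs vehicle fitted by four-parameter logistic for IC50, N≥3 cells.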

| IC50 [nM] | SMILES |
| --- | --- |
| 54 | CC1(C)N=C(C23CC(N(Cc4ccc(Cl)c(F)c4)S(=O)(=O)c4ccccc4)(C2)C3)N[C@H]1C(=O)NCC1(C(F)(F)F)CC1 (mixture of isomers) [Example 26] |
| 40 | CC(C)(F)CNC(=O)[C@@H]1NC(C23CC(N(Cc4ccc(Cl)c(Cl)c4)S(=O)(=O)c4ccccc4)(C2)C3)=NC1(C)C (mixture of isomers) [Example 28] |
| 51 | CC1(C)N=C(C23CC(N(Cc4ccc(Cl)c(F)c4)S(=O)(=O)c4ccccc4)(C2)C3)N[C@H]1C(=O)NC1CCC1 (mixture of isomers) [Example 60] |
| 75 | CC1(C)N=C(C23CC(N(Cc4ccc(Cl)c(F)c4)S(=O)(=O)c4ccccc4)(C2)C3)N[C@H]1C(=O)N1CC[C@@H](C(F)(F)F)C1 (mixture of isomers) [Example 125] |
| 137 | CC1(C)N=C(C23CC(N(Cc4ccc(Cl)cc4)S(=O)(=O)CCCC(F)(F)F)(C2)C3)N[C@H]1C(=O)NCCC(F)(F)F (mixture of isomers) [Example 206] |
| 632 | CC([C@@H]1CN=C(C23CC(N(Cc4ccc(C(F)(F)F)cc4)S(=O)(=O)c4ccc(F)cc4)(C2)C3)N1)N(C)C (stereo partly shown) [Example 281] |
| 593 | CN(C)C(=O)[C@H]1CN=C(C23CC(N(Cc4ccc(C(F)(F)F)cc4)S(=O)(=O)c4ccc(F)cc4)(C2)C3)N1 [Example 277] |
| 84 | CC1(C)N=C(C23CC(N(Cc4ccc(Cl)c(F)c4)S(=O)(=O)c4ccccc4)(C2)C3)N[C@H]1C(=O)NCC(F)(F)F (mixture of isomers) [Example 140] |
| 99 | CC1(C)N=C(C23CC(N(Cc4ccc(Cl)c(F)c4)S(=O)(=O)c4ccccc4)(C2)C3)N[C@H]1C(=O)N1CCC(F)(F)C2(CC2)C1 (mixture of isomers) [Example 166] |
| 53 | CC1(C)N=C(C23CC(N(Cc4ccc(F)c(Cl)c4)S(=O)(=O)c4ccccc4)(C2)C3)N[C@H]1C(=O)NCCC(F)(F)F (mixture of isomers) [Example 65] |
| 64 | CC1(C)N=C(C23CC(N(Cc4ccc(Cl)cc4)S(=O)(=O)CCCF)(C2)C3)N[C@H]1C(=O)NCCC(F)(F)F (mixture of isomers) [Example 92] |
| 74 | CC1(C)N=C(C23CC(N(Cc4ccc(Cl)c(F)c4)S(=O)(=O)c4ccccc4)(C2)C3)N[C@H]1C(=O)NC1(CC(F)(F)F)CC1 (mixture of isomers) [Example 118] |
| 45 | CN(C(=O)[C@@H]1NC(C23CC(N(Cc4ccc(Cl)c(F)c4)S(=O)(=O)c4ccccc4)(C2)C3)=NC1(C)C)C1CC(C(F)F)C1 (mixture of isomers) [Example 38] |
| 99 | CC1(C)N=C(C23CC(N(Cc4ccc(Cl)c(F)c4)S(=O)(=O)c4ccccc4)(C2)C3)N[C@H]1C(=O)NC(C1CC1)C1CC1 (mixture of isomers) [Example 168] |
| 258 | CC1(C)N=C(C23CC(N(Cc4ccc(C#N)cc4)S(=O)(=O)c4ccccc4)(C2)C3)N[C@H]1C(=O)NCCC(F)(F)F (mixture of isomers) [Example 246] |
| 78 | CCCS(=O)(=O)N(Cc1ccc(Cl)c(Cl)c1)C12CC(C3=NC(C)(C)[C@H](C(=O)N4CCC(C(F)(F)F)CC4)N3)(C1)C2 (mixture of isomers) [Example 130] |
| 575 | CC1(C)N=C(C23CC(N(Cc4ccc(Cl)cc4)S(=O)(=O)CC(F)(F)F)(C2)C3)N[C@H]1C(=O)NCCC(F)(F)F (mixture of isomers) [Example 276] |
| 36 | CC1(C)N=C(C23CC(N(Cc4ccc(Cl)cc4)S(=O)(=O)c4cccs4)(C2)C3)N[C@H]1C(=O)NCCC(F)(F)F (mixture of isomers) [Example 18] |
| 45 | CC1(C)N=C(C23CC(N(Cc4ccc(Cl)cc4)S(=O)(=O)c4ccccc4)(C2)C3)N[C@H]1C(=O)NCC1CC(F)(F)C1 (mixture of isomers) [Example 37] |
| 72 | CN(CC1CC(F)(F)C1)C(=O)[C@@H]1NC(C23CC(N(Cc4ccc(Cl)c(Cl)c4)S(=O)(=O)c4ccccc4)(C2)C3)=NC1(C)C (mixture of isomers) [Example 113] |
| 59 | CC1(C)N=C(C23CC(N(Cc4ccc(Cl)c(F)c4)S(=O)(=O)c4ccccc4)(C2)C3)N[C@H]1C(=O)NC1CC1C(F)(F)F (mixture of isomers) [Example 75] |
| 73 | CC1(C)N=C(C23CC(N(Cc4ccc(Cl)c(Cl)c4)S(=O)(=O)c4ccccc4)(C2)C3)N[C@H]1C(=O)NC1CC(F)(F)C1 (mixture of isomers) [Example 115] |
| 77 | CC1(F)CCN(C(=O)[C@@H]2NC(C34CC(N(Cc5ccc(Cl)c(F)c5)S(=O)(=O)c5ccccc5)(C3)C4)=NC2(C)C)C1 (mixture of isomers) [Example 127] |
| 58 | CC(F)(F)CCS(=O)(=O)N(Cc1ccc(Cl)c(Cl)c1)C12CC(C3=NC(C)(C)[C@H](C(=O)NC45CC(C4)C5)N3)(C1)C2 (mixture of isomers) [Example 74] |
| 109 | CC1N=C(C23CC(N(Cc4ccc(C(F)(F)F)cc4)S(=O)(=O)c4ccc(F)cc4)(C2)C3)N[C@@]1(C)C(=O)NCC1CCC1 (mixture of isomers) [Example 184] |

| IC50 [nM] | SMILES |
| --- | --- |
| 67 | CCN(CCC(F)(F)F)C(=O)[C@@H]1NC(C23CC(N(Cc4ccc(Cl)c(F)c4)S(=O)(=O)c4ccccc4)(C2)C3)=NC1(C)C (mixture of isomers) [Example 100] |
| 20 | CC1(C)N=C(C23CC(N(Cc4ccc(Cl)c(F)c4)S(=O)(=O)c4ccccc4)(C2)C3)N[C@H]1C(=O)NCC1(F)CC1 (mixture of isomers) [Example 6] |
| 82 | CCCS(=O)(=O)N(Cc1ccc(Cl)c(Cl)c1)C12CC(C3=NC(C)(C)[C@H](C(=O)NCCC(F)(F)F)N3)(C1)C2 (mixture of isomers) [Example 136] |
| 168 | Cc1ccccc1S(=O)(=O)N(Cc1ccc(Cl)cc1)C12CC(C3=NC(C)(C)[C@H](C(=O)NCCC(F)(F)F)N3)(C1)C2 (mixture of isomers) [Example 219] |
| 46 | CC1(C)N=C(C23CC(N(Cc4ccc(Cl)cc4)S(=O)(=O)c4ccco4)(C2)C3)N[C@H]1C(=O)NCCC(F)(F)F (mixture of isomers) [Example 41] |
| 129 | C[C@]1(C(=O)NC2CCC2)CN=C(C23CC(N(Cc4ccc(C(F)(F)F)cc4)S(=O)(=O)c4ccc(F)cc4)(C2)C3)N1 (mixture of isomers) [Example 199] |
| 79 | CC1(C)N=C(C23CC(N(Cc4ccc(Cl)c(Cl)c4)S(=O)(=O)c4ccccc4)(C2)C3)N[C@H]1C(=O)N1CCC12CC(F)(F)C2 (mixture of isomers) [Example 134] |
| 72 | CC(F)(F)CCS(=O)(=O)N(Cc1ccc(Cl)c(F)c1)C12CC(C3=NC(C)(C)[C@H](C(=O)NCCC(F)(F)F)N3)(C1)C2 (mixture of isomers) [Example 111] |
| 10500 | CC1(C)N=C(C23CC(N(Cc4ccc(Cl)cc4)S(=O)(=O)CCO)(C2)C3)N[C@H]1C(=O)NCCC(F)(F)F (mixture of isomers) [Example 294] |
| 217 | COC1(CNC(=O)C2NC(C34CC(N(Cc5ccc(C(F)(F)F)cc5)S(=O)(=O)c5ccc(F)cc5)(C3)C4)=NC2(C)C)CCC1 (stereo not shown) [Example 237] |
| 57 | CC1(C)N=C(C23CC(N(Cc4ccc(Cl)c(Cl)c4)S(=O)(=O)CCC(F)F)(C2)C3)N[C@H]1C(=O)NC12CC(C1)C2 (mixture of isomers) [Example 72] |
| 121 | CC1(C)N=C(C23CC(N(Cc4ccc(Cl)c(Cl)c4)S(=O)(=O)CCC(F)F)(C2)C3)N[C@H]1C(=O)N1CCC(F)(F)CC1 (mixture of isomers) [Example 194] |
| 40 | CC1(C)N=C(C23CC(N(Cc4ccc(F)c(F)c4)S(=O)(=O)c4ccccc4)(C2)C3)N[C@H]1C(=O)NCCC(F)(F)F (mixture of isomers) [Example 24] |
| 101 | CC1(C)N=C(C23CC(N(Cc4ccc(Cl)cc4)S(=O)(=O)C4CCC4)(C2)C3)N[C@H]1C(=O)NCCC(F)(F)F (mixture of isomers) [Example 170] |
| 134 | CC(C)(C)CNC(=O)[C@@H]1NC(C23CC(N(Cc4ccc(Cl)c(Cl)c4)S(=O)(=O)CCC(C)(F)F)(C2)C3)=NC1(C)C (mixture of isomers) [Example 203] |
| 802 | C[C@@]1(C(=O)NCC2CCCCC2)CN=C(C23CC(N(Cc4ccc(C(F)(F)F)cc4)S(=O)(=O)c4ccc(F)cc4)(C2)C3)N1 (mixture of isomers) [Example 285] |
| 408 | CC1N=C(C23CC(N(Cc4ccc(C(F)(F)F)cc4)S(=O)(=O)c4ccc(F)cc4)(C2)C3)N[C@@]1(C)C(=O)NCCC(F)(F)F (mixture of isomers) [Example 265] |
| 126 | CC1(C)N=C(C23CC(N(Cc4ccc(C(F)(F)F)c(F)c4)S(=O)(=O)c4ccccc4)(C2)C3)N[C@H]1C(=O)NCCC(F)(F)F (mixture of isomers) [Example 197] |
| 95 | CC(C)(F)CNC(=O)[C@@H]1NC(C23CC(N(Cc4ccc(Cl)c(Cl)c4)S(=O)(=O)CCC(C)(F)F)(C2)C3)=NC1(C)C (mixture of isomers) [Example 159] |
| 126 | CC1(C)N=C(C23CC(N(Cc4ccc(Cl)c(F)c4)S(=O)(=O)c4ccccc4)(C2)C3)N[C@H]1C(=O)N1CC2(C1)CC(F)(F)C2 (mixture of isomers) [Example 198] |
| 69 | CC1(C)N=C(C23CC(N(Cc4ccc(Cl)c(F)c4)S(=O)(=O)c4ccccc4)(C2)C3)N[C@H]1C(=O)NC1CCC(F)(F)CC1 (mixture of isomers) [Example 104] |
| 333 | CC(C)NC(=O)[C@@]1(C)CN=C(C23CC(N(Cc4ccc(C(F)(F)F)cc4)S(=O)(=O)c4ccccc4)(C2)C3)N1 (mixture of isomers) [Example 254] |
| 559 | CC1(C)N=C(C23CC(N(Cc4ccc(Cl)cc4)S(C)(=O)=O)(C2)C3)N[C@H]1C(=O)NCCC(F)(F)F (mixture of isomers) [Example 274] |
| 386 | COCCS(=O)(=O)N(Cc1ccc(Cl)cc1)C12CC(C3=NC(C)(C)[C@H](C(=O)NCCC(F)(F)F)N3)(C1)C2 (mixture of isomers) [Example 261] |
